Laboratory results published in PubChem BioAssay (NCI).
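In this assay, cells in 96-well plates receive the compound at five concentrations for 48 hours. Endpoints are linearly interpolated between the surrounding concentrations. The concentration for 50% growth inhibition is given as GI50. TGI: total growth inhibition.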

Legend:
Assay in all cases: DTP human tumour cell line panel, 48 h
[1] = test system: BT-549 breast
[2] = test system: MDA-MB-231 breast
[3] = test system: NCI-H23 lung
[4] = test system: RPMI-8226 leukemia
[5] = test system: 786-0 renal
[6] = test system: HT29 colon
[7] = test system: SK-MEL-5 melanoma
[8] = test system: MCF7 breast
[9] = test system: OVCAR-3 ovarian
[10] = test system: KM12 colon
[11] = test system: HOP-92 NSCLC
[12] = test system: HS 578T breast
[13] = test system: UO-31 renal
[14] = test system: U251 CNS
[15] = test system: A498 renal
[16] = test system: SNB-75 CNS
[17] = test system: SR leukemia
[18] = test system: SF-295 CNS
[19] = test system: NCI-H460 lung
[20] = test system: HL-60(TB) leukemia
[21] = test system: HOP-62 NSCLC
[22] = test system: HCC-2998 colon
[23] = test system: NCI-H226 lung
[24] = test system: MDA-MB-435
[25] = test system: SNB-19 CNS
[26] = test system: RXF 393 renal
[27] = test system: NCI/ADR-RES ovarian
[28] = test system: CCRF-CEM leukemia
[29] = test system: HCT-116 colon
[30] = test system: MOLT-4 leukemia
[31] = test system: TK-10 renal
[32] = test system: UACC-62 melanoma
[33] = test system: DU-145 prostate
[34] = test system: HCT-15 colon
[35] = test system: OVCAR-8 ovarian
[36] = test system: SK-OV-3 ovarian
[37] = test system: PC-3 prostate
[38] = test system: SF-539 CNS
[39] = test system: EKVX NSCLC
[40] = test system: UACC-257 melanoma
[41] = test system: OVCAR-5 ovarian
[42] = test system: COLO 205 colon
[43] = test system: SF-268 CNS
[44] = test system: M14 melanoma
[45] = test system: K-562 leukemia
[46] = test system: ACHN renal
[47] = test system: SN12C renal
[48] = test system: LOX IMVI melanoma
[49] = test system: SK-MEL-2 melanoma
[50] = test system: OVCAR-4 ovarian
[51] = test system: A549 NSCLC
[52] = test system: CAKI-1 renal
[53] = test system: MALME-3M melanoma
[54] = test system: SK-MEL-28 melanoma
[55] = test system: NCI-H522 lung
[56] = test system: SW-620 colon
[57] = test system: T-47D breast

SMILES: COc1cc2c3c(n(CCCN=[N+]=[N-])c(=O)c2cc1OC)-c1ccc(F)cc1C3=O
- GI50 [1]: 12.4 µM
- TGI [1]: > 100 µM
- GI50 [2]: > 100 µM
- TGI [2]: > 100 µM
- GI50 [3]: 14.1 µM
- TGI [3]: > 100 µM
- GI50 [4]: 1700 nM
- TGI [4]: 10.8 µM
- GI50 [5]: 2880 nM
- TGI [5]: 14.7 µM
- GI50 [6]: 12.3 µM
- TGI [6]: > 100 µM
- GI50 [7]: 4.25 µM
- TGI [7]: 17.9 µM
- GI50 [8]: 3.78 µM
- TGI [8]: > 100 µM
- GI50 [9]: 6.11 µM
- TGI [9]: > 100 µM
- GI50 [10]: 41.2 µM
- TGI [10]: > 100 µM
- GI50 [11]: 2270 nM
- TGI [11]: 8.15 µM
- GI50 [12]: > 100 µM
- TGI [12]: > 100 µM
- GI50 [13]: 5.14 µM
- TGI [13]: > 100 µM
- GI50 [14]: 4.6 µM
- TGI [14]: 55.6 µM
- GI50 [15]: 39.6 µM
- TGI [15]: > 100 µM
- GI50 [16]: 21.1 µM
- TGI [16]: 90.2 µM
- GI50 [17]: 449 nM
- TGI [17]: 2680 nM
- GI50 [18]: 2620 nM
- TGI [18]: 7.97 µM
- GI50 [19]: 1870 nM
- TGI [19]: 13.3 µM
- GI50 [20]: 44.4 µM
- TGI [20]: > 100 µM
- GI50 [21]: 4.18 µM
- TGI [21]: > 100 µM
- GI50 [22]: 16.3 µM
- TGI [22]: > 100 µM
- GI50 [23]: 43.2 µM
- TGI [23]: > 100 µM
- GI50 [24]: 38.1 µM
- TGI [24]: > 100 µM
- GI50 [25]: 4.35 µM
- TGI [25]: > 100 µM
- GI50 [26]: > 100 µM
- TGI [26]: > 100 µM
- GI50 [27]: 7.44 µM
- TGI [27]: > 100 µM
- GI50 [28]: 1990 nM
- TGI [28]: 5.79 µM
- GI50 [29]: 4.2 µM
- TGI [29]: > 100 µM
- GI50 [30]: 2700 nM
- TGI [30]: 28.5 µM
- GI50 [31]: 73.7 µM
- TGI [31]: > 100 µM
- GI50 [32]: 5.27 µM
- TGI [32]: > 100 µM
- GI50 [33]: 4.19 µM
- TGI [33]: > 100 µM
- GI50 [34]: 79.3 µM
- TGI [34]: > 100 µM
- GI50 [35]: 21.2 µM
- TGI [35]: > 100 µM
- GI50 [36]: 11.6 µM
- TGI [36]: > 100 µM
- GI50 [37]: 6.63 µM
- TGI [37]: > 100 µM
- GI50 [38]: 3.23 µM
- TGI [38]: 12.4 µM
- GI50 [39]: 89.4 µM
- TGI [39]: > 100 µM
- GI50 [40]: > 100 µM
- TGI [40]: > 100 µM
- GI50 [41]: > 100 µM
- TGI [41]: > 100 µM
- GI50 [42]: 23.8 µM
- TGI [42]: > 100 µM
- GI50 [43]: 3.8 µM
- TGI [43]: > 100 µM
- GI50 [44]: 5.16 µM
- TGI [44]: > 100 µM
- GI50 [45]: 19.3 µM
- TGI [45]: > 100 µM
- GI50 [46]: 3.8 µM
- TGI [46]: > 100 µM
- GI50 [47]: 8.26 µM
- TGI [47]: > 100 µM
- GI50 [48]: 4.04 µM
- TGI [48]: > 100 µM
- GI50 [49]: > 100 µM
- TGI [49]: > 100 µM
- GI50 [50]: 55.9 µM
- TGI [50]: > 100 µM
- GI50 [51]: 48 µM
- TGI [51]: > 100 µM
- GI50 [52]: 4.56 µM
- TGI [52]: > 100 µM
- GI50 [53]: > 100 µM
- TGI [53]: > 100 µM
- GI50 [54]: 49.2 µM
- TGI [54]: > 100 µM
- GI50 [55]: 4.89 µM
- TGI [55]: > 100 µM
- GI50 [56]: 6.29 µM
- TGI [56]: > 100 µM
- GI50 [57]: 3.92 µM
- TGI [57]: > 100 µM
